Assay results from ChEMBL document CHEMBL1142127, “Neuroprotective principles from Gastrodia elata” (J Nat Prod, 2007).
pEC50, pIC50, pKi: −log10 of the molar value. Activity calls are given as the source filed them. The calls are words filed in the database; no cut-off is given here.

How the values were obtained:
[1] = system: PC-12; experiment: Prevention of serum deprivation-induced PC12 cell apoptosis at 100 uM by MTT assay; assay type: functional, Rattus norvegicus
[2] = biological target: Adenosine receptor A2a (Rattus norvegicus, UniProt P30543); experiment: Binding affinity to adenosine A2A receptor in rat brain striatum; assay type: tissue-based
Chain of Adenosine receptor A2a (P30543 whole entry): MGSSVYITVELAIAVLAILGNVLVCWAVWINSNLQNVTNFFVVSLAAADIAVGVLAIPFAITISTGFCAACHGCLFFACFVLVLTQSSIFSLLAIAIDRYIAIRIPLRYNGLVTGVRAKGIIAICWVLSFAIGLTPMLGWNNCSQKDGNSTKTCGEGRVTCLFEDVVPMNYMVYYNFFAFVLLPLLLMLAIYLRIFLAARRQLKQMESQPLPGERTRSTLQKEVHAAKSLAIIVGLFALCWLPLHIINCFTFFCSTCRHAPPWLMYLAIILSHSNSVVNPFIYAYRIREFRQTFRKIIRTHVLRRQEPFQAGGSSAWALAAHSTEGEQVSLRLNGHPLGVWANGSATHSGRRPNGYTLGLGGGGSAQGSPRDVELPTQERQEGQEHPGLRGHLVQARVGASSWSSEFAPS

[3] = system: PC-12; experiment: Prevention of serum deprivation-induced PC12 cell apoptosis by MTT assay; assay type: functional, cell-based; conditions: Rattus norvegicus
[4] = system: PC-12; experiment: Prevention of serum deprivation-induced PC12 cell apoptosis at > 100 uM by MTT assay; assay type: functional, cell-based; conditions: Rattus norvegicus

pIC50 [2] | pKi [2] | SMILES | Activity [1] [%] | pEC50 [3] | Activity [4]
– | – | Nc1ncnc2c1ncn2[C@@H]1O[C@H](CO)[C@@H](O)[C@H]1O [ADENOSINE] | 80 | – | –
4.37 | 4.62 | Oc1ccc(CSCc2ccc(O)cc2)cc1 | – | 5.14 | –
– | – | OCc1ccc(O[C@@H]2O[C@H](CO)[C@@H](O)[C@H](O)[C@H]2O)cc1 | – | – | inactive
– | – | C[C@H]1O[C@@H](Oc2ccc(COC(=O)CC(O)(CC(=O)OCc3ccc(O[C@@H]4O[C@H](CO)[C@@H](O)[C@H](O)[C@H]4O)cc3)C(=O)Oc3ccc(O[C@H]4O[C@H](CO)[C@@H](O)[C@H](O)[C@H]4O)cc3)cc2)[C@H](O)[C@@H](O)[C@@H]1O (some centres undefined) | – | – | inactive
5.33 | 5.58 | OC[C@H]1O[C@@H](n2cnc3c(NCc4ccc(O)cc4)ncnc32)[C@H](O)[C@@H]1O | – | 7.43 | –
